Columns and labels:
IL-6 mRNA expression [1] = test: Inhibition of LPS-induced IL-6 mRNA expression in NRK52E; type: cell-based, Rat; conditions: 10 μM for 30 min, then LPS 24 hours
Procedure: (§1) Rat kidney epithelial cells (ATCC #CRL-1571) were maintained in DMEM medium containing 10% fetal bovine serum, and 1% Penicillin-Streptomycin solution (Sigma-Aldrich). NRK52E cells were passaged by trypsinization when the cultures reached a confluency of 70%. For all experiments, NRK52E cells were seeded at 0.6·10^5 cells/cm^2 and allowed to adhere for 24 hours.
(§2) HUVEC and NRK52E cells were pre-incubated with SUL compounds (10 μM) for 30 min and subsequently exposed to LPS for 24 hours under standard culture conditions. Cells were lysed in triZOL reagens (Invitrogen) and total RNA isolated according to manufacturers' instruction. 1 μg total RNA per sample was reverse transcribed using the FirstAid Reverse Transcription Kit (ThermoFisher). Copy-DNA equivalents of 5 ng total RNA were amplified on a ViiA7 Real-time PCR system (ThermoFisher, Waltham, Mass.) using iTaq Universal SYBR Green Supermix (Bio-Rad, Hercules, Calif.) and primers specific for tumor necrosis factor alpha, interleukin 1 beta, interleukin-6 and beta actin as loading control. Amplification was performed for 40 cycles of 95° C. for 30 s, 60° C. for 1 min. Relative mRNA expression was calculated as 2^−(Cq^gene^−Cq^reference^) and normalized to unstimulated control cells (100% inhibition) and vehicle-treated and LPS exposed cells (0% inhibition). The following primers were used: […]

TNFα mRNA expression [2] = test: Inhibition of LPS-induced TNFα mRNA expression in NRK52E; type: cell-based, Rat; conditions: 10 μM for 30 min, then LPS 24 hours
Procedure: as §1, §2

IL-1β mRNA expression [3] = test: Inhibition of LPS-induced IL-1β mRNA expression in NRK52E; type: cell-based, Rat; conditions: 10 μM for 30 min, then LPS 24 hours
Procedure: as §1, §2

IL-6 mRNA expression [4] = test: Inhibition of LPS-induced IL-6 mRNA expression in HUVEC; type: cell-based, Human; conditions: 10 μM for 30 min, then LPS 24 hours
Procedure: (§3) Human Umbilical Cord Endothelial Cells (HUVEC, Lonza CC-2519) were maintained on 1% gelatin-coated culture flasks in RPMI1640 medium containing 20% fetal bovine serum, 2 mM Glutamine (Sigma-Aldrich), 1% Penicillin-Streptomycin solution (Sigma-Aldrich) and 50 μg/ml Bovine Pituitary Extract (Invitrogen). HUVEC were passaged by trypsinization when the cultures reach a confluency of 70%. For all experiments, HUVEC were seeded at 0.6·10^5 cells/cm^2 and allowed to adhere for 24 hours.
as §2

TNFα mRNA expression [5] = test: Inhibition of LPS-induced TNFα mRNA expression in HUVEC; type: cell-based, Human; conditions: 10 μM for 30 min, then LPS 24 hours
Procedure: as §3, §2

IL-1β mRNA expression [6] = test: Inhibition of LPS-induced IL-1β mRNA expression in HUVEC; type: cell-based, Human; conditions: 10 μM for 30 min, then LPS 24 hours
Procedure: as §3, §2

IL-1β mRNA expression [7] = test: Endothelial inflammatory activation after endotoxin, IL-1β mRNA (Example 5); type: cell-based, Human; conditions: HUVEC; 10 μM for 30 min
Procedure: as §3
(§4) HUVEC cells were lysed in triZOL reagens (Invitrogen) and total RNA isolated according to manufacturers' instruction. 1 μg total RNA per sample was reverse transcribed using the FirstAid Reverse Transcription Kit (ThermoFisher). Copy-DNA equivalents of 5 ng total RNA were amplified on a ViiA7 Real-time PCR system (ThermoFisher, Waltham, Mass.) using iTaq Universal SYBR Green Supermix (Bio-Rad, Hercules, Calif.) and primers specific for tumor necrosis factor alpha (TNFα; sense 5′-[…]-3′, antisense 5′-[…]-3′), interleukin 1 beta (IL-1β; sense 5′-[…]-3′, antisense 5′-[…]-3′), interleukin-6 (IL-6; sense 5′-[…]-3′, antisense 5′-[…]-3′) and beta actin (ACTB; sense 5′-[…]-3′, antisense 5′-[…]-3′) as loading control. Amplification was performed for 40 cycles of 95° C. for 30 s, 60° C. for 1 min. Relative mRNA expression was calculated according to the δδCt-method.

HUVEC = test: Cell viability after hypothermia-rewarming stress (Neutral Red); type: cell-based, Human; conditions: 10 μM for 1 hour, 4° C. for 24 hours followed by 37° C. for 3 hours
Procedure: as §3
HUVEC were pre-treated with BN-80933, SUL-138 or SUL-150 (all 10 μM) for 1 hour in a humidified incubator at 37° C. Following pre-treatment, HUVEC were placed in a cold room (2-8° C.) for 24 hours and subsequently placed back at 37° C. for a 3 hour rewarming period. After 1 hour of rewarming, cell culture medium was replaced by prewarmed and filtered 0.4 mg/mL Neutral Red (#N463 8, Sigma-Aldrich) in culture medium. After the remaining 2 hour rewarming period, HUVEC were washed with PBS and NRU was solubilized in 100 μL resorption solution (50% ethanol, 1% ascetic acid in dH2O). The absorbance was measured at a wavelength of 550 nm on a BioTek ELx808 plate reader. The recorded OD550 nm values were normalized to control samples that were maintained at 37° C. at all times, which were assumed to be 100% viable.

TNFα mRNA expression [8] = test: Endothelial inflammatory activation after endotoxin, TNFα mRNA (Example 5); type: cell-based, Human; conditions: HUVEC; 10 μM for 30 min
Procedure: as §3, §4

[9] = test system: NO production in RAW264.7 macrophages; test: Macrophage NO production (nitrate in conditioned medium), basal and after LPS; type: cell-based, Mouse
Procedure: Mouse macrophage RAW264.7 cells (ATCC #TIB-71) were maintained in DMEM medium containing 10% fetal bovine serum, and 1% Penicillin-Streptomycin solution (Sigma-Aldrich). […] For all experiments, RAW264.7 cells were seeded at 0.5·10^5 cells/cm^2 and allowed to adhere for 24 hours. Cellular production of NO was approximated by measuring nitrate concentrations in culture media using the Measure-IT™ High-Sensitivity Nitrite Assay Kit (#M36051, ThermoFisher) according to manufacturer's instructions. […] Therefore, nitrate concentrations in conditioned media are a good approximate to assess cellular NO production. 50 μl conditioned medium derived from a single 96-wells plate well was used per assay and normalized against protein concentration. All experiments were performed in quadruplicate. LPS induces macrophage NO production by activating iNOS. RAW264.7 macrophages were pre-treated with vehicle (DMSO), BN-80933, SUL-138, or SUL-150 or (all 10 μM) prior to endotoxin (LPS 100 ng/ml) exposure for 24 hours. The nitrate levels in the conditioned medium from LPS exposed RAW264.7 macrophages averaged at 83 pmol/mg protein (˜16-fold increase versus non-exposed RAW264.7 cells, p=0.001).

[10] = test system: mitochondrial oxidative stress in HUVEC; test: LPS-induced mitochondrial superoxide in HUVEC (MitoSox); type: cell-based, Human; conditions: 10 μM for 30 min, LPS 100 ng/ml 24 hours
Procedure: as §3
(§5) The production of cellular and mitochondrial oxidative stress was measured using fluorescent probes for cellular and mitochondrial superoxide, i.e. dihydroethidium (DHE) and MitoSox (ThermoFisher), respectively. HUVEC were incubated with BN-80933, SUL-138 or SUL-150 (all 10 μM) for 30 min. Next, HUVEC were exposed to LPS (100 ng/ml) for an additional 24 hours. In the final hour of incubation, 2.5 μM of DHE or MitoSox was applied to each sample. HUVEC were washed in PBS and fixed in 4% paraformaldehyde at room temperature for 15 min. Nuclear staining was performed by 5 μM […] (DAPI) and fluorescence intensity of the samples was recorded in a CLARIOStar Plus plate reader (BMG Labtech) equipped with the appropriate filter sets. Fluorescence recordings for DHE and MitoSox were corrected for DAPI fluorescence. All experiments were performed in quadruplicate.

IL-6 mRNA expression [11] = test: Endothelial inflammatory activation after endotoxin, IL-6 mRNA (Example 5); type: cell-based, Human; conditions: HUVEC; 10 μM for 30 min
Procedure: as §3, §4

NO production in HUVEC = test: Endothelial NO production (nitrate in conditioned medium), basal and after LPS; type: cell-based, Human
Procedure: as §3
Cellular production of NO was approximated by measuring nitrate concentrations in culture media using the Measure-IT™ High-Sensitivity Nitrite Assay Kit (#M36051, ThermoFisher) according to manufacturer's instructions. […] Therefore, nitrate concentrations in conditioned media are a good approximate to assess cellular NO production. 50 μl conditioned medium derived from a single 96-wells plate well was used per assay and normalized against protein concentration. All experiments were performed in quadruplicate.
Endotoxins suppress endothelial NO production by limiting the activity of eNOS. HUVEC were pre-treated with vehicle (DMSO), BN-80933, SUL-138, or SUL-150 or (all 10 μM) prior to endotoxin (LPS 100 ng/ml) exposure for 24 hours. The nitrate levels in the conditioned medium from endothelial cells exposed to LPS averaged at 160 pmol/mg protein (˜33% reduction versus non LPS exposed HUVEC, p=0.002), which was lower than basal control levels. BN-80933 further suppressed the nitrate levels in the conditioned medium (FIG. 7A) to an average of 90 pmol/mg protein (p=0.008).

[12] = test system: cytoplasmic oxidative stress in HUVEC; test: LPS-induced cellular superoxide in HUVEC (DHE); type: cell-based, Human; conditions: 10 μM for 30 min, LPS 100 ng/ml 24 hours
Procedure: as §3, §5

[13] = 10 μM pre-treatment, LPS 100 ng/ml for 24 hours

| Structure (SMILES) | inhibition of LPS-induced mRNA expression of IL-6 (IL-6 mRNA expression [1]) [%] | inhibition of LPS-induced mRNA expression of TNFα (TNFα mRNA expression [2]) [%] | inhibition of LPS-induced mRNA expression of IL-1β (IL-1β mRNA expression [3]) [%] | inhibition of LPS-induced mRNA expression of IL-6 (IL-6 mRNA expression [4]) [%] | inhibition of LPS-induced mRNA expression of TNFα (TNFα mRNA expression [5]) [%] | inhibition of LPS-induced mRNA expression of IL-1β (IL-1β mRNA expression [6]) [%] | also measured |
| --- | --- | --- | --- | --- | --- | --- | --- |
| Cc1c(C)c2c(c(C)c1O)CCC(C)(C(=O)NCc1ccccc1)O2 (stereo not shown) [SUL-96, N-benzyl-6-hydroxy-2,5,7,8-tetramethyl-3,4-dihydro-2H-1-benzopyran-2-carboxamide] | 89.9 ± 5.8 | 85.4 ± 4.7 | 81.7 ± 7.2 | – | – | – | – |
| Cc1c(C)c2c(c(C)c1O)CCC(C)(C(N)=O)O2 (stereo not shown) [SUL-89, 6-hydroxy-2,5,7,8-tetramethyl-3,4-dihydro-2H-1-benzopyran-2-carboxamide, reference compound] | 8.7 ± 4.6 | 17.5 ± 3.4 | 12.3 ± 6.4 | – | – | – | – |
| Cc1c(C)c(O)c(CC[C@@](C)(O)C(=O)N2CCN(CCO)CC2)c(C)c1O [SUL-138M2, 4-(2,5-dihydroxy-3,4,6-trimethylphenyl)-2-hydroxy-1-(4-(2-hydroxyethyl)piperazin-1-yl)-2-methylbutan-1-one] | – | – | – | 55.2 ± 8.5 | 58.1 ± 3.1 | 51.7 ± 8.0 | – |
| Cc1c(C)c2c(c(C)c1O)CCC(C)(C(=O)Nc1ccccc1)O2 (stereo not shown) [SUL-103, 6-hydroxy-2,5,7,8-tetramethyl-N-phenyl-3,4-dihydro-2H-1-benzopyran-2-carboxamide] | 63.3 ± 1.4 | 67.8 ± 7.8 | 59.2 ± 7.9 | – | – | – | – |
| Cc1c(C)c2c(c(C)c1O)CCC(C)(C(=O)N[C@H](CO)c1ccccc1)O2 (stereo partly drawn) [SUL-129, 6-hydroxy-N-[(1S)-2-hydroxy-1-phenylethyl]-2,5,7,8-tetramethyl-3,4-dihydro-2H-1-benzopyran-2-carboxamide] | 69.2 ± 2.6 | 75.6 ± 6.4 | 75.9 ± 7.1 | – | – | – | – |
| COC(=O)CNC(=O)C1(C)CCc2c(C)c(O)c(C)c(C)c2O1 (stereo not shown) [SUL-99, methyl [(6-hydroxy-2,5,7,8-tetramethyl-3,4-dihydro-2H-1-benzopyran-2-carbonyl)amino]acetate, reference compound] | – | – | – | 32.7 ± 8.1 | 35.1 ± 6.2 | 31.5 ± 4.5 | – |
| Cc1c(C)c2c(c(C)c1O)CC[C@@](C)(C(=O)N1CCN(c3ccc(NC(=N)c4cccs4)cc3)CC1)O2 [BN-80933, reference compound] | – | – | – | – | – | – | LPS-induced mRNA expression of IL-1β (IL-1β mRNA expression [7]): does not preclude the LPS-induced mRNA expression of the interleukins IL-1β and IL-6; reduction in cell viability versus normothermic control cells (HUVEC): ~55%; LPS-induced mRNA expression of TNFα (TNFα mRNA expression [8]): precludes the induction of mRNA expression of the pro-inflammatory cytokine TNFα; LPS-induced increase in extracellular nitrate level [9, 13]: blunted the LPS-induced increase in extracellular nitrate level; basal production of extracellular nitrate ([9]; no LPS, 10 μM): Neither BN-80933, SUL-138, nor SUL-150 affected the basal production of extracellular nitrate; LPS-induced mitochondrial oxidative stress (MitoSox) [10]: not affected by the pre-treatment with BN-80933; LPS-induced mRNA expression of IL-6 (IL-6 mRNA expression [11]): does not preclude the LPS-induced mRNA expression of the interleukins IL-1β and IL-6; nitrate levels in the conditioned medium after LPS (NO production in HUVEC; [13]): 90 pmol/mg protein; suppression of basal endothelial NO production (nitrate in conditioned medium) (NO production in HUVEC; no LPS, 10 μM): ~38%; LPS-induced cytoplasmic oxidative stress (DHE) [12]: mitigates the induction of cytoplasmic oxidative stress |
| Cc1c(C)c2c(c(C)c1O)CC[C@@](C)(C(=O)N[C@@H]1CCCNC1)O2 [SUL-13, (2S)-6-hydroxy-2,5,7,8-tetramethyl-N-((R)-piperidin-3-yl)-3,4-dihydro-1-benzopyran-2-carboxamide] | – | – | – | 45.7 ± 9.1 | 41.2 ± 8.2 | 38.6 ± 4.2 | – |

— patent publication US20230202997A1, “CHROMANOL, QUINONE OR HYDROQUINONE COMPOUNDS FOR TREATMENT OF SEPSIS” (Sulfateq B.V., priority 2020, published 2023)
